These results are taken from PMC12526004, “Tiliroside Suppresses Uric Acid Production in Hepatocytes and Attenuates Purine-Induced Hyperuricemia in Male ICR Mice” (Molecules, 2025).

Series [1] relates to XO. The following applies: read-out: IC50, XO inhibition (previous report); cited from earlier work.
Series [2] has as its system AML12 hepatocytes. As to the kind of experiment: UA production by AML12 cells stimulated with UA precursors. It is filed as cell-based. Conditions: for maximum reduction of UA production: guanosine + inosine (GI mixture) 100 µM each, vs control (0 µM); for UA production: UA precursor xanthine. The procedure:
AML12 hepatocytes used in this study were acquired from ATCC (CRL-2254), Manassas, VA, USA. AML12 cells were maintained in DMEM/F-12 (Life Technologies, Grand Island, NY, USA) supplemented with 10% (v/v) fetal bovine serum (FBS; Hyclone, Logan, UT, USA), recombinant human insulin (5 µg/mL), human transferrin (5 µg/mL), and dexamethasone (40 ng/mL), each obtained from FUJIFILM Wako, as well as selenium (3 ng/mL, Sigma-Aldrich) and penicillin–streptomycin mixed solution (100 U/mL penicillin and 100 µg/mL streptomycin, Nacalai Tesque), under a humidified atmosphere of 5% CO2 at 37 °C. Culture of AML12 hepatocytes and measurement of UA production were conducted following a previously reported protocol.Cells were seeded at a density of 1.0 × 10^5 cells per well in 24-well plates and cultured for 72 h in complete medium, followed by 24 h in serum-free DMEM/F-12. After serum deprivation, cells were rinsed once with calcium- and magnesium-free phosphate-buffered saline [PBS (–)] and incubated in 200 µL of balanced salt solution (BSS) containing […], 5 mM KCl, 1 mM MgCl2, 0.8 mM CaCl2, 25 mM NaHCO3, 1 mM NaH2PO4, 10 mM HEPES, and 5 mM glucose. […] The final concentration of DMSO in all samples was adjusted to 0.15%. After a 2-h incubation, 200 µL of the reaction mixture was collected for UA quantification. The UA concentration in BSS was used as an indicator of UA production. Subsequently, cells were washed with PBS (–) and lysed in 300 µL of buffer containing 50 mM Tris and 1 mM sodium phosphate (pH 7.5). Lysates were sonicated and centrifuged (12,000× g, 5 min, 4 °C), and the supernatants were used for protein quantification using the Pierce™ BCA Protein Assay Kit (Thermo Fisher Scientific Inc., Waltham, MA, USA). UA levels were measured using the uricase-based Uric Acid C-Test Wako (FUJIFILM Wako). UA production was expressed as nanomoles per 2 h per milligram of cellular protein (nmol/2 h/mg protein).

Series [3] relates to AML12 hepatocytes. The series can be described thus: Cell viability, WST-8 assay. Conditions: concentrations up to 100 µM, 2 h. It is filed as cell-based. The procedure: The viability of AML12 cells was determined using the WST-8 assay provided in the Cell Counting Kit-8 (Dojindo Laboratories, Kumamoto, Japan). Cells were initially seeded at 5 × 10^3 cells per well in 96-well plates and maintained in DMEM/F-12 medium containing 10% (v/v) FBS for 72 h. To induce serum deprivation, the medium was replaced with serum-free DMEM/F-12, and cells were incubated for an additional 24 h. […] The treatment lasted for 2 h. Subsequently, cells were washed again with BSS and incubated with the WST-8 reagent for 1 h. Absorbance was measured at 490 nm using a microplate reader (MTP-310Lab; CORONA […] Co., Ltd., […], Japan). Cell viability was normalized to the DMSO control (0 μM), which was set at 100%.
Background: Tetrazolium dyes change colour on reduction, which living cells bring about.

The target of series [4] is xanthine oxidase (bovine milk-derived) (Bos taurus, UniProt P80457). As to the kind of experiment: XO inhibition assay in vitro (UV absorbance at 295 nm). Conditions: xanthine substrate, 37 °C, mean of three independent experiments, read-out: IC50, direct XO inhibitory activity. It is filed as biochemical.
Sequence of xanthine oxidase (bovine milk-derived) (P80457 whole entry): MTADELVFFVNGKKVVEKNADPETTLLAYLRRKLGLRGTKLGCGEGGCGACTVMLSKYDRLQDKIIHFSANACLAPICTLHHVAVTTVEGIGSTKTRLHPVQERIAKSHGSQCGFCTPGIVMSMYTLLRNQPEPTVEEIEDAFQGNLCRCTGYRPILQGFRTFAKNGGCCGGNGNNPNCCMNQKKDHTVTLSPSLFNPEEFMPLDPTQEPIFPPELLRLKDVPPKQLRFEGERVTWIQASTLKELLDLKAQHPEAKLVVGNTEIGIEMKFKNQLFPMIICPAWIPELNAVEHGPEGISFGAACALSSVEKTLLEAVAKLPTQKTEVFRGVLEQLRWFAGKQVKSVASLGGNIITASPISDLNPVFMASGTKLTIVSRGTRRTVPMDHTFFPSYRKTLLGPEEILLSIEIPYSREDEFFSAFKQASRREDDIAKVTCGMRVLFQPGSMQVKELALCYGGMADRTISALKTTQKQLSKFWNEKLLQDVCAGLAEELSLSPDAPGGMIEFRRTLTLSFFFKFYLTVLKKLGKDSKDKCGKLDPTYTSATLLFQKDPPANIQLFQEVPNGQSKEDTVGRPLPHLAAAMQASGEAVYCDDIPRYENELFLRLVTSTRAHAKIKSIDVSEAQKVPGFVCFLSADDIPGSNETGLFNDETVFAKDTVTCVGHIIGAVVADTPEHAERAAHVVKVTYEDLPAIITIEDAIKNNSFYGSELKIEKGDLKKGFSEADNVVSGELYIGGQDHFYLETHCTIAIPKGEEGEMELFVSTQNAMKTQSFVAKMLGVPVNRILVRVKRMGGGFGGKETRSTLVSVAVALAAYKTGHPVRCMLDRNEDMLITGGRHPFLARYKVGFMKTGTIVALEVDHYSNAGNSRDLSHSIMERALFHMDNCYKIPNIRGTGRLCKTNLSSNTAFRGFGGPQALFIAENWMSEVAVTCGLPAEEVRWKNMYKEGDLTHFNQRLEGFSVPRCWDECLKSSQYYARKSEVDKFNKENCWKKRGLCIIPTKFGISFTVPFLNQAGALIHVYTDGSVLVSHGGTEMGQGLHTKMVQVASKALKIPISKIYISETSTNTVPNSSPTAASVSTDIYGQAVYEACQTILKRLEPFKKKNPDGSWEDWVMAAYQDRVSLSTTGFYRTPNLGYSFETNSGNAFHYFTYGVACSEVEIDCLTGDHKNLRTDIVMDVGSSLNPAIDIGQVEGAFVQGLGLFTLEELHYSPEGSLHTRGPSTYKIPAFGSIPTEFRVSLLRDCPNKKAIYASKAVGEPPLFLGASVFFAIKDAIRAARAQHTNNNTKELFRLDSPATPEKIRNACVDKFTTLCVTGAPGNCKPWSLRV
Method: Prior to the assay, the compounds were freshly dissolved in a mixture of 30% dimethyl sulfoxide (DMSO; FUJIFILM Wako) and 70% phosphate buffer (100 mM, pH 7.5) to prepare test solutions at final concentrations ranging from 0 to 100 µM. In each well of a 96-well microplate, 50 µL of the test solution was mixed with 60 µL of buffer and 30 µL of xanthine oxidase (7.8 mU/mL, bovine milk-derived; Sigma-Aldrich). After preincubation at 37 °C for 10 min, the reaction was initiated by adding 60 µL of xanthine substrate (150 µM; FUJIFILM Wako). Absorbance at 295 nm was monitored for 30 min at 37 °C using a Spark 10 M microplate reader (Tecan Group Ltd., Männedorf, Switzerland). XO inhibitory activity was expressed as percentage inhibition, calculated using the formula Inhibition (%) = 100 × [1 − (B/A)], where A and B represent the absorbance increase in the absence and presence of the test compound, respectively. All measurements were performed in triplicate.
All experimental data are presented as mean ± SEM. […] Data from the in vitro XO inhibition assay are shown as mean values from three independent experiments. IC50 values were calculated by nonlinear regression analysis using dose–response curves generated from at least six concentrations of each compound. All statistical analyses were performed using GraphPad Prism version 10 (GraphPad Software, San Diego, CA, USA).

By IC50 is commonly meant the concentration at which inhibition is half-maximal.

Regarding `O=c1c(O[C@@H]2O[C@H](CO)[C@@H](O)[C@H](O)[C@H]2O)c(-c2ccc(O)cc2)oc2cc(O)cc(O)c12` [Astragalin, kaempferol-3-O-glucoside], the 50% inhibitory concentration (IC50) in series [1] is 49.5 µM; in series [4], 43 µM. Besides, the “maximum reduction of UA production” value in series [2] (100 µM, 2 h) was “approximately 13.3%”. Further, the “cytotoxic effects (cell viability)” value in series [3] is “did not exhibit any cytotoxic effects”.
Take `O=c1c(O)c(-c2ccc(O)cc2)oc2cc(O)cc(O)c12` [Kaempferol, kaempferol]: the figures for the UA production in series [2] (10 µM), in series [2] (30 µM) and in series [2] (100 µM) were 236.0 ± 7.2 nmol/2 h/mg protein, 101.1 ± 2.8 nmol/2 h/mg protein and 31.4 ± 0.5 nmol/2 h/mg protein, respectively. The “maximum reduction of UA production” value in series [2] (100 µM, 2 h) is recorded as about 97.2%. Moreover, the “cytotoxic effects (cell viability)” value in series [3] is recorded as “did not exhibit any cytotoxic effects”.
Consider `O=C(O)/C=C/c1ccc(O)cc1` [p-Coumaric acid, p-coumaric acid], for which the “effect on UA production” value in series [2] (concentrations up to 100 µM, GI mixture, 2 h) is “remained unaffected”. Besides, the “cytotoxic effects (cell viability)” value in series [3] is recorded as “did not exhibit any cytotoxic effects”. Moreover, the IC50 in series [4] was over 100 µM.
